Assay [1] relates to subclones of RKO colon adenocarcinoma cells (RKOp27 or RKOp21) arrested by Ponasterone A. As to the kind of experiment: Alamar Blue cell viability assay, cell cycle specific mode of action: cells arrested by ectopic p27Kip1 induced by Ponasterone A versus proliferating cells. The assay is classed as cell-based. To be noted: Homo sapiens, RKO p27 induced (arrested) cells, 10 μM Ponasterone A, 72 hours, value = class bound given in Table A, read-out: −logIC50 RKO p27 induced (arrested) (converted). In short, it runs like this:
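Viability of proliferating versus Ponasterone A (10 μM)-arrested RKOp27/RKOp21 cells after 72 h compound exposure at 37° C, in quadruplicate. Read-out is Alamar Blue fluorescence (544/590 nm) normalised to untreated cells = 100%; values as −log IC50.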
In general terms: Resazurin is reduced to fluorescent resorufin, in cell work by metabolically active cells.

The subject of assay [2] is RKO (RKOp27) human colon adenocarcinoma cells. Description: Alamar Blue cell viability assay, anti-proliferative/cytotoxic activity on proliferating RKO subclones. The assay is classed as cell-based. To be noted: RKOp27, 72 h, RKO p27 uninduced (proliferating) cells, value = class bound given in Table A, read-out: −logIC50 RKO p27 uninduced (proliferating) (converted). In a few lines:
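Alamar Blue fluorescence (ex 544, em 590 nm) after 72 h compound exposure at 37 °C, 5% CO2, normalised to untreated controls set at 100%. Cells were seeded at 5000 per well and dosed 24 h later with serial semi-logarithmic dilutions in 10% FCS DMEM, four replicates each. −log IC50 [mol/l] was derived from concentration-effect curves.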

For the compound `COC(=O)OCC1CCc2c(sc(NC(=O)CCc3cccc(OC)c3)c2C#N)C1` (centres unmarked) [Example 255, Carbonic acid 3-cyano-2-[3-(3-methoxy-phenyl)-propanoylamino]-4,5,6,7-tetrahydro-benzo[b]thiophen-6-ylmethyl ester methyl ester], the IC50 was no less than 100000 nM in assay [1] and 501 to 2000 nM in assay [2].

Take `Cc1cc(CNC(=O)OCC2CCc3c(sc(NC(=O)CCc4cccnc4)c3C#N)C2)no1` (centres unmarked) [Example 256, (5-Methyl-isoxazol-3-ylmethyl)-carbamic acid 3-cyano-2-(3-pyridin-3-yl-propanoylamino)-4,5,6,7-tetrahydro-benzo[b]thiophen-6-ylmethyl ester]: the IC50 in assay [1] is no less than 100000 nM; in assay [2], 501 to 2000 nM.

On to `Cc1cc(CNC(=O)OCC2CCc3c(sc(NC(=O)CCc4cccnc4)c3C#N)C2)on1` (centres unmarked) [Example 257, (3-Methyl-isoxazol-5-ylmethyl)-carbamic acid 3-cyano-2-(3-pyridin-3-yl-propanoylamino)-4,5,6,7-tetrahydro-benzo[b]thiophen-6-ylmethyl ester], for which the IC50 in assay [1] was no less than 100000 nM; in assay [2] it was 501 to 2000 nM.

As for `N#Cc1c(NC(=O)CCc2cccnc2)sc2c1CCC(COC(=O)N1CCCC1)C2` (centres unmarked) [Example 258, Pyrrolidine-1-carboxylic acid 3-cyano-2-(3-pyridin-3-yl-propanoylamino)-4,5,6,7-tetrahydro-benzo[b]thiophen-6-ylmethyl ester], the values for the IC50 in assay [1] and in assay [2] were no less than 100000 nM and 501 to 2000 nM, respectively.

As to `COc1cccc(CCC(=O)Nc2sc3c(c2C#N)CCC(OC(=O)NCc2cccnc2)C3)c1` (centres unmarked) [Example 259, Pyridin-3-ylmethyl-carbamic acid 3-cyano-2-[3-(3-methoxy-phenyl)-propanoylamino]-4,5,6,7-tetrahydro-benzo[b]thiophen-6-yl ester], the figures for the IC50 in assay [1] and in assay [2] were no less than 100000 nM and no more than 501 nM, respectively.

For `COc1cccc(CCC(=O)Nc2sc3c(c2C#N)CCC(OC(=O)NCc2nccn2C)C3)c1` (centres unmarked) [Example 261, (1-Methyl-1H-imidazol-2-ylmethyl)-carbamic acid 3-cyano-2-[3-(3-methoxy-phenyl)-propanoylamino]-4,5,6,7-tetrahydro-benzo[b]thiophen-6-yl ester], the IC50 in assay [1] was no less than 100000 nM; in assay [2], no more than 501 nM.

For `COc1cccc(CCC(=O)Nc2sc3c(c2C#N)CCC(COC(=O)OCc2nccs2)C3)c1` (centres unmarked) [Example 262, Carbonic acid 3-cyano-2-[3-(3-methoxy-phenyl)-propanoylamino]-4,5,6,7-tetrahydro-benzo[b]thiophen-6-ylmethyl ester thiazol-2-ylmethyl ester], the IC50 in assay [1] was no less than 50100 nM; in assay [2], 501 to 2000 nM.

For `COc1cccc(CCC(=O)Nc2sc3c(c2C#N)CCC(OC(=O)NCCn2ccnc2)C3)c1` (centres unmarked) [Example 263, (2-Imidazol-1-yl-ethyl)-carbamic acid 3-cyano-2-[3-(3-methoxy-phenyl)-propanoylamino]-4,5,6,7-tetrahydro-benzo[b]thiophen-6-yl ester], the IC50 in assay [1] was no less than 50100 nM; in assay [2] it was no more than 501 nM.

For the compound `COc1cccc(CCC(=O)Nc2sc3c(c2C#N)CCC(OC(=O)Nc2cccnc2)C3)c1` (centres unmarked) [Example 264, Pyridin-3-yl-carbamic acid 3-cyano-2-[3-(3-methoxy-phenyl)-propanoylamino]-4,5,6,7-tetrahydro-benzo[b]thiophen-6-yl ester], the IC50 is no less than 50100 nM in assay [1] and 501 to 2000 nM in assay [2].

Take `COc1cccc(CCC(=O)Nc2sc3c(c2C#N)CCC(OC(=O)NCc2cncn2C)C3)c1` (centres unmarked) [Example 265, (3-Methyl-3H-imidazol-4-ylmethyl)-carbamic acid 3-cyano-2-[3-(3-methoxy-phenyl)-propanoylamino]-4,5,6,7-tetrahydro-benzo[b]thiophen-6-yl ester]: the IC50 in assay [1] was no less than 50100 nM; in assay [2], no more than 501 nM.

For the compound `COc1cccc(CCC(=O)Nc2sc3c(c2C#N)CCC(OC(=O)OCc2cncs2)C3)c1` (centres unmarked) [Example 266, Carbonic acid 3-cyano-2-[3-(3-methoxy-phenyl)-propanoylamino]-4,5,6,7-tetrahydro-benzo[b]thiophen-6-yl ester thiazol-5-ylmethyl ester], the figures for the IC50 in assay [1] and in assay [2] were no less than 50100 nM and 501 to 2000 nM, respectively.

Regarding `CC(CC(=O)Nc1sc2c(c1C#N)CCC(OC(=O)NCC1CCOCC1)C2)c1ccccc1` (centres unmarked) [Example 267, (Tetrahydro-pyran-4-ylmethyl)-carbamic acid 3-cyano-2-(3-phenyl-butanoylamino)-4,5,6,7-tetrahydro-benzo[b]thiophen-6-yl ester], the IC50 in assay [1] is no less than 50100 nM; in assay [2], no more than 501 nM.

As for `COc1cccc(C(C)CC(=O)Nc2sc3c(c2C#N)CCC(OC(=O)NCc2cccnc2)C3)c1` (centres unmarked) [Example 268, Pyridin-3-ylmethyl-carbamic acid 3-cyano-2-[3-(3-methoxy-phenyl)-butanoylamino]-4,5,6,7-tetrahydro-benzo[b]thiophen-6-yl ester], the results for the IC50 in assay [1] and in assay [2] were no less than 100000 nM and 501 to 2000 nM, respectively.

Regarding `COc1cccc(C(C)CC(=O)Nc2sc3c(c2C#N)CCC(OC(=O)NCc2ccncc2)C3)c1` (centres unmarked) [Example 269, Pyridin-4-ylmethyl-carbamic acid 3-cyano-2-[3-(3-methoxy-phenyl)-butanoylamino]-4,5,6,7-tetrahydro-benzo[b]thiophen-6-yl ester], the IC50 in assay [1] was no less than 100000 nM; in assay [2], 501 to 2000 nM.

Turning to `COc1cccc(C(C)CC(=O)Nc2sc3c(c2C#N)CCC(OC(=O)NCC2CCOCC2)C3)c1` (centres unmarked) [Example 270, (Tetrahydro-pyran-4-ylmethyl)-carbamic acid 3-cyano-2-[3-(3-methoxy-phenyl)-butanoyl-amino]-4,5,6,7-tetrahydro-benzo[b]thiophen-6-yl ester], the values for the IC50 in assay [1] and in assay [2] were no less than 100000 nM and 501 to 2000 nM, respectively.

Take `COc1cccc(C(C)CC(=O)Nc2sc3c(c2C#N)CCC(OC(=O)NC2CCOCC2)C3)c1` (centres unmarked) [Example 271, (Tetrahydro-pyran-4-yl)-carbamic acid 3-cyano-2-[3-(3-methoxy-phenyl)-butanoylamino]-4,5,6,7-tetrahydro-benzo[b] thiophen-6-yl ester]: the IC50 in assay [1] is no less than 100000 nM; in assay [2], 501 to 2000 nM.

Take `COc1cccc(C(C)CC(=O)Nc2sc3c(c2C#N)CCC(OC(=O)NCc2cncn2C)C3)c1` (centres unmarked) [Example 272, (3-Methyl-3H-imidazol-4-ylmethyl)-carbamic acid 3-cyano-2-[3-(3-methoxy-phenyl)-butanoylamino]-4,5,6,7-tetrahydro-benzo[b]thiophen-6-yl ester]: the IC50 was no less than 100000 nM in assay [1] and 501 to 2000 nM in assay [2].

With `COc1cccc(C(C)CC(=O)Nc2sc3c(c2C#N)CCC(OC(=O)NCc2cc(C)nn2C)C3)c1` (centres unmarked) [Example 273, (2,5-Dimethyl-2H-pyrazol-3-ylmethyl)-carbamic acid 3-cyano-2-[3-(3-methoxy-phenyl)-butanoylamino]-4,5,6,7-tetrahydro-benzo[b] thiophen-6-yl ester], the IC50 in assay [1] was no less than 100000 nM; in assay [2] it was no more than 501 nM.

Consider `COc1cccc(C(C)CC(=O)Nc2sc3c(c2C#N)CCC(OC(=O)NCc2cnn(C)c2)C3)c1` (centres unmarked) [Example 274, (1-Methyl-1H-pyrazol-4-ylmethyl)-carbamic acid 3-cyano-2-[3-(3-methoxy-phenyl)-butanoylamino]-4,5,6,7-tetrahydro-benzo[b] thiophen-6-yl ester], for which the IC50 is no less than 100000 nM in assay [1] and 501 to 2000 nM in assay [2].

The record behind these values is patent US20110044938A1 (NYCOMED GMBH, priority 2006, published 2011).
